Source: publication PMC7722660 (Neuropsychopharmacology Reports, 2020)
Several values for one entry are separate records, joined by “and”; a condition that tells them apart may be missing. Equal entries are not always repeated.

Key:
[1] = tested on: rats; conditions: cited from earlier work
[2] = tested on: rats; test: Rat EEG; assay type: in vivo; conditions: 100 mg/kg p.o., vs vehicle
[3] = Brain penetration: plasma and brain concentrations in rats; conditions: rat, in vivo, po
[4] = Pharmacokinetic study in rats; assay type: in vivo; conditions: rat, plasma
[5] = tested on: 55 molecular targets, including neurotransmitter receptors, ion channels, and transporters; test: Cerep ExpresSProfile off-target panel; assay type: binding; conditions: 10 μmol/L
[6] = Spontaneous locomotor activity in rats; assay type: in vivo, rat; conditions: up to 100 mg/kg, data not shown
[7] = tested on: OX2 receptor; conditions: agonist ref 21; cited from earlier work
[8] = tested on: OX2 receptor; conditions: cited from earlier work

Cc1cc(C)nc(N2CC3CN(C(=O)c4c(F)cccc4-n4nccn4)CC3C2)n1 (stereo not shown) [JNJ‐42847922]
effect on REM sleep ([1]; rats ref 19, 23): did not exert a significant effect
effect on NREM sleep time ([1]; rats, first 2 hours of sleep ref 19, 23): prolonged

COc1c(C#N)ccnc1N1C2CCC1CN(C(=O)c1cccnc1-n1cccn1)C2 [SDM‐878, 2‐(3‐(2‐(1H‐pyrazol‐1‐yl)nicotinoyl)‐3,8‐diazabicyclo[3.2.1]octan‐8‐yl)‐3‐methoxyisonicotinonitrile]
effect on duration of REM sleep [2]: did not observe a significant effect
effect on duration of NREM sleep ([2]; P < .05): significantly increased
effect on time spent in wakefulness ([2]; P < .05): significantly decreased
effect on total sleep ([2]; P < .05): significantly increased
concentration at 30 min ([3]; 30 mg/kg): 110 ng/mL and 28 ng/g
concentration at 30 min ([3]; 100 mg/kg): 601 ng/mL and 198 ng/g
half-life ([4]; iv, 1 mg/kg): 22.2 min
Cmax ([4]; po, 30 mg/kg): 1180 ng/mL
Tmax ([4]; po, 30 mg/kg): 15 min
half-life ([4]; po, 30 mg/kg): 25.8 min
inhibitory effects on 55 other molecular targets [5]: ≤ 50%
effect on spontaneous locomotor activity [6]: did not affect

[Ala^11, D‐Leu^15]‐orexin‐B [ADL‐OXB]
selectivity for the OX2 receptor over the OX1 receptor [7]: 400 fold

orexin‐B
fold higher affinity for the OX2 receptor than for the OX1 receptor [8]: 10 fold
